Measured values: patent US9260425B2 (Genetech, Inc., priority 2011, dated 2016)

target: Pim-1 (Homo sapiens (Human), UniProt P11309); assay: Pim kinase binding activity assay (Example 901), PIM-1 enzyme, Caliper microfluidic peptide phosphorylation; format: biochemical; conditions: 20 pM PIM-1, 10 μM ATP, 1 μM FAM-peptide, 90 minutes at room temperature
Method in brief: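 The readout was microfluidic mobility-shift separation of a FAM-tagged Pim-specific peptide, excited at 488 nm and read at 530 nm, with Ki calculated from percent conversion. Reactions held 20 pM PIM-1, 1 μM peptide and 10 μM ATP in pH 7.2 HEPES/MgCl2/DTT buffer, ran 90 min at room temperature and were stopped with EDTA.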

Sequence of Pim-1 (P11309 whole entry): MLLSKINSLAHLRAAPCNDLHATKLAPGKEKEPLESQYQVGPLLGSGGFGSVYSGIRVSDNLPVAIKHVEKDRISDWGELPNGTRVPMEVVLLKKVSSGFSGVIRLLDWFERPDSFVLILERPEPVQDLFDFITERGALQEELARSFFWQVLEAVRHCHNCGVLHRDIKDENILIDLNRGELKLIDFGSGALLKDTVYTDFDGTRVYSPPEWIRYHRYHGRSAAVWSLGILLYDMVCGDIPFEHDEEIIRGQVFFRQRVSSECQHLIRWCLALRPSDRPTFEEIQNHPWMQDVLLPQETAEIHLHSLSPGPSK

In order of rising Ki:
1. CCn1cc(-c2cc3c(-c4cccc(N5CCNC[C@@H](O)C5)n4)n[nH]c3cn2)cn1 [Example 411, (R)-1-(6-(5-(1-ethyl-1H-pyrazol-4-yl)-1H-pyrazolo[3,4-c]pyridin-3-yl)pyridin-2-yl)-1,4-diazepan-6-ol]  0.014 nM
2. CCn1cc(-c2cc3c(-c4cccc(N5CCCNCC5)n4)n[nH]c3cn2)cn1 [Example 409, 3-(6-(1,4-diazepan-1-yl)pyridin-2-yl)-5-(1-ethyl-1H-pyrazol-4-yl)-1H-pyrazolo[3,4-c]pyridine]  0.02 nM
3. CCn1cc(-c2cc3c(-c4ccc(Br)c(N5C[C@@H](N)C[C@@H](F)C5)n4)n[nH]c3cn2)cn1 [Example 454, (3S,5R)-1-(3-bromo-6-(5-(1-ethyl-1H-pyrazol-4-yl)-1H-pyrazolo[3,4-c]pyridin-3-yl)pyridin-2-yl)-5-fluoropiperidin-3-amine]  0.026 nM
4. CCn1cc(-c2cc3c(-c4cccc(N5CCNC(C)(C)C5)n4)n[nH]c3cn2)cn1 [Example 446, 3-(6-(3,3-dimethylpiperazin-1-yl)pyridin-2-yl)-5-(1-ethyl-1H-pyrazol-4-yl)-1H-pyrazolo[3,4-c]pyridine]  0.029 nM
5. CCn1cc(-c2cc3c(-c4ccc(C)c(N5C[C@@H](N)C[C@@H](F)C5)n4)n[nH]c3cn2)cn1 [Example 510, (3S,5R)-1-(6-(5-(1-ethyl-1H-pyrazol-4-yl)-1H-pyrazolo[3,4-c]pyridin-3-yl)-3-methylpyridin-2-yl)-5-fluoropiperidin-3-amine]  0.03 nM
6. Cn1cc(-c2cc3c(-c4ccc(Br)c(N5CCC(N)CC5)n4)n[nH]c3cn2)cn1 [Example 392, 1-(3-bromo-6-(5-(1-methyl-1H-pyrazol-4-yl)-1H-pyrazolo[3,4-c]pyridin-3-yl)pyridin-2-yl)piperidin-4-amine]  0.03 nM
7. CS(=O)(=O)c1cncc(-c2cc3c(-c4cccc(N5CCNCC5)n4)n[nH]c3cn2)c1 [Example 470, 5-(5-(methylsulfonyl)pyridin-3-yl)-3-(6-(piperazin-1-yl)pyridin-2-yl)-1H-pyrazolo[3,4-c]pyridine]  0.049 nM
8. Cc1ccc(-c2n[nH]c3cnc(-c4cnn(C)c4)cc23)nc1N1CCC[C@H](O)C1 [Example 441, (S)-1-(3-methyl-6-(5-(1-methyl-1H-pyrazol-4-yl)-1H-pyrazolo[3,4-c]pyridin-3-yl)pyridin-2-yl)piperidin-3-ol]  0.062 nM
9. Cc1ccc(-c2n[nH]c3cnc(-c4cnn(C)c4)cc23)nc1N1CCN(CCS(C)(=O)=O)C(C)(C)C1 [Example 428, 3-(6-(3,3-dimethyl-4-(2-(methylsulfonyl)ethyl)piperazin-1-yl)-5-methylpyridin-2-yl)-5-(1-methyl-1H-pyrazol-4-yl)-1H-pyrazolo[3,4-c]pyridine]  0.112 nM
10. Cn1cc(-c2cc3c(-c4cccc(N5C[C@@H](N)C[C@@H](F)C5)n4)n[nH]c3cn2)cn1 [Example 495, (3S,5R)-5-fluoro-1-(6-(5-(1-methyl-1H-pyrazol-4-yl)-1H-pyrazolo[3,4-c]pyridin-3-yl)pyridin-2-yl)piperidin-3-amine]  0.122 nM
11. OCCn1cc(-c2cc3c(-c4cccc(N5CCNCC5)n4)n[nH]c3cn2)cn1 [Example 496, 2-(4-(3-(6-(piperazin-1-yl)pyridin-2-yl)-1H-pyrazolo[3,4-c]pyridin-5-yl)-1H-pyrazol-1-yl)ethanol]  0.13 nM
12. OC1CCN(c2cccc(-c3n[nH]c4cnc(-c5cccnc5)cc34)n2)CC1 [Example 272, 1-(6-(5-(pyridin-3-yl)-1H-pyrazolo[3,4-c]pyridin-3-yl)pyridin-2-yl)piperidin-4-ol]  0.149 nM
13. Cc1ccc(-c2n[nH]c3cnc(-c4cnn(C)c4)cc23)nc1N1CCOCC1 [Example 419, 4-(3-methyl-6-(5-(1-methyl-1H-pyrazol-4-yl)-1H-pyrazolo[3,4-c]pyridin-3-yl)pyridin-2-yl)morpholine]  0.16 nM
14. Cn1cc(-c2cc3c(-c4ccc(Br)c(N5CCN(CCS(C)(=O)=O)C(C)(C)C5)n4)n[nH]c3cn2)cn1 [Example 406, 3-(5-bromo-6-(3,3-dimethyl-4-(2-(methylsulfonyl)ethyl)piperazin-1-yl)pyridin-2-yl)-5-(1-methyl-1H-pyrazol-4-yl)-1H-pyrazolo[3,4-c]pyridine]  0.259 nM
15. Fc1cncc(-c2cc3c(-c4cccc(N5CCNCC5)n4)n[nH]c3cn2)c1 [Example 208, 5-(5-fluoropyridin-3-yl)-3-(6-(piperazin-1-yl)pyridin-2-yl)-1H-pyrazolo[3,4-c]pyridine]  0.284 nM
16. NCC1CCCCN1c1cccc(-c2n[nH]c3cnc(-c4cccnc4)cc23)n1 (centres unmarked) [Example 324, (1-(6-(5-(pyridin-3-yl)-1H-pyrazolo[3,4-c]pyridin-3-yl)pyridin-2-yl)piperidin-2-yl)methanamine]  0.296 nM
17. Fc1ccccc1-c1n[nH]c2cnc(-c3cnccc3OCCC3CCNCC3)cc12 [Example 220, 3-(2-fluorophenyl)-5-(4-(2-(piperidin-4-yl)ethoxy)pyridin-3-yl)-1H-pyrazolo[3,4-c]pyridine]  0.379 nM
18. Cn1cc(-c2cc3c(-c4cccc(NCC5CCNCC5)n4)n[nH]c3cn2)cn1 [Example 183, 6-(5-(1-methyl-1H-pyrazol-4-yl)-1H-pyrazolo[3,4-c]pyridin-3-yl)-N-(piperidin-4-ylmethyl)pyridin-2-amine]  0.426 nM
19. N[C@@H]1CCN(c2cncc(-c3cc4c(-c5ccccc5F)n[nH]c4cn3)c2)C1 [Example 192, (R)-1-(5-(3-(2-fluorophenyl)-1H-pyrazolo[3,4-c]pyridin-5-yl)pyridin-3-yl)pyrrolidin-3-amine]  0.511 nM
20. Cc1ccc(-c2n[nH]c3cnc(-c4cnn(C)c4)cc23)nc1N1CC(N2CCNC(=O)C2)C1 [Example 425, 4-(1-(3-methyl-6-(5-(1-methyl-1H-pyrazol-4-yl)-1H-pyrazolo[3,4-c]pyridin-3-yl)pyridin-2-yl)azetidin-3-yl)piperazin-2-one]  0.618 nM
21. c1cc(-c2n[nH]c3cnc(-c4cncs4)cc23)nc(N2CCCCC2)c1 [Example 358, 5-(3-(6-(piperidin-1-yl)pyridin-2-yl)-1H-pyrazolo[3,4-c]pyridin-5-yl)thiazole]  1.22 nM
22. Cn1cc(-c2cc3c(-c4cnn(C)c4)n[nH]c3cn2)cn1 [Example 163, 3,5-bis(1-methyl-1H-pyrazol-4-yl)-1H-pyrazolo[3,4-c]pyridine]  1.92 nM
23. c1cncc(-c2cc3c(-c4cn[nH]c4)n[nH]c3cn2)c1 [Example 156, 3-(1H-pyrazol-4-yl)-5-(pyridin-3-yl)-1H-pyrazolo[3,4-c]pyridine]  2.31 nM
24. C1=C(c2n[nH]c3cnc(-c4cccnc4)cc23)CCC1 [Example 225, 3-cyclopentenyl-5-(pyridin-3-yl)-1H-pyrazolo[3,4-c]pyridine]  2.83 nM
25. c1cncc(-c2cc3c(N4CCC(N5CCNCC5)C4)n[nH]c3cn2)c1 (centres unmarked) [Example 320, 3-(3-(piperazin-1-yl)pyrrolidin-1-yl)-5-(pyridin-3-yl)-1H-pyrazolo[3,4-c]pyridine]  3.86 nM
26. CCn1cc(-c2cc3c(-c4ccc(=O)n(CC5(C(N)=O)CCC5)c4)n[nH]c3cn2)cn1 [Example 475, 1-((5-(5-(1-ethyl-1H-pyrazol-4-yl)-1H-pyrazolo[3,4-c]pyridin-3-yl)-2-oxopyridin-1(2H)-yl)methyl) cyclobutanecarboxamidc]  4.49 nM
27. O=C1CN(c2cc3c(-c4cccc(N5CCNCC5)n4)n[nH]c3cn2)CCN1 [Example 335, 4-(3-(6-(piperazin-1-yl)pyridin-2-yl)-1H-pyrazolo[3,4-c]pyridin-5-yl)piperazin-2-one]  12.6 nM
28. NC(=O)Cn1cc(-c2cc3c(-c4cccc(F)n4)n[nH]c3cn2)cn1 [Example 178, 2-(4-(3-(6-fluoropyridin-2-yl)-1H-pyrazolo[3,4-c]pyridin-5-yl)-1H-pyrazol-1-yl)acetamide]  17.6 nM
29. NCCNC(=O)c1cccc(-c2n[nH]c3cnc(-c4cccnc4)cc23)n1 [Example 326, N-(2-aminoethyl)-6-(5-(pyridin-3-yl)-1H-pyrazolo[3,4-c]pyridin-3-yl)picolinamide]  17.7 nM
30. O=C(NC1CCNCC1)c1cccc(-c2n[nH]c3cnc(-c4cccnc4)cc23)n1 [Example 337, N-(piperidin-4-yl)-6-(5-(pyridin-3-yl)-1H-pyrazolo[3,4-c]pyridin-3-yl)picolinamide]  30.5 nM
31. c1ccc(-c2n[nH]c3cnc(-c4ccoc4)cc23)cc1 [Example 185, 5-(furan-3-yl)-3-phenyl-1H-pyrazolo[3,4-c]pyridine]  70.9 nM
32. [O-][n+]1cc(C(F)(F)F)ccc1-c1n[nH]c2cnc(-c3cccnc3)cc12 [Example 354]  97.9 nM
33. OC1(c2cccc(-c3n[nH]c4cnc(-c5cccnc5)cc34)n2)CCNCC1 [Example 422, 4-(6-(5-(pyridin-3-yl)-1H-pyrazolo[3,4-c]pyridin-3-yl)pyridin-2-yl)piperidin-4-ol]  300 nM
34. Cc1n[nH]c2cnc(-c3cnn(C4COC4)c3)cc12 [Example 114, 3-methyl-5-(1-(oxetan-3-yl)-1H-pyrazol-4-yl)-1H-pyrazolo[3,4-c]pyridine]  844 nM
35. CN1CC(c2cc3c(-c4ccccc4)n[nH]c3cn2)=CC1=O [Example 259, 1-methyl-4-(3-phenyl-1H-pyrazolo[3,4-c]pyridin-5-yl)-1H-pyrrol-2(5H)-one]  920 nM
36. Cc1n[nH]c2cnc(-c3ccn[nH]3)cc12 [Example 103, 3-methyl-5-(1H-pyrazol-5-yl)-1H-pyrazolo[3,4-c]pyridine]  1300 nM
37. NC1CCN(Cc2n[nH]c3cnc(-c4cccnc4)cc23)CC1 [Example 106, 1-((5-(pyridin-3-yl)-1H-pyrazolo[3,4-c]pyridin-3-yl)methyl)piperidin-4-amine]  1400 nM
38. N[C@H]1CCCN(Cc2n[nH]c3cnc(-c4cn[nH]c4)cc23)C1 [Example 111, (S)-1-((5-(1H-pyrazol-4-yl)-1H-pyrazolo[3,4-c]pyridin-3-yl)methyl)piperidin-3-amine]  4000 nM
